The text below walks through data of US8742141B2, “Inhibition and treatment of prostate cancer metastasis” (Northwestern University, priority 2008, dated 2014).

The subject of data set [1] is PC3-M or PC3 cells. As to the kind of experiment: Cell invasion assay, compounds of Example 7. It is filed as cell-based, human. The note with it: 10 μM of compound. The procedure: (§1) Assays were conducted using methods as described in Craft et al. (2008, Mol. Pharmocol., 73(1):235-242; herein incorporated by reference in its entirety).
(§2) The anti-metastatic activity of the compounds of Example 7 was tested using the procedure of Example 2. Specifically, PC3-M or PC3 cells were treated with 10 μM of compound (for invasion, FIG. 9) or a range of concentrations (for growth inhibition, FIG. 10). For invasion, values are the mean±SD number of invading cells, as a percent of untreated controls, from N=3 separate assays run at different times (each assay was in replicates of N=4). Cell viability was determined by MTT assay as recited in Kyle et al., Mol. Pharmacol, 51(2):193-200 (1997); herein incorporated in its entirety. Values are the mean±SD of N=2 separate assays run at different times (N=3 for each assay), and are the percent of untreated controls.

In data set [2] the test system is PC3-M human prostate cancer cells. As to the kind of experiment: 3-day growth inhibition MTT assay. Conditions: range of concentrations. It counts as cell-based. As to the method:
PC3-M human prostate cancer cells were treated with different concentrations of the indicated compound, and then MTT reduction as an indicator of cell viability was measured according to the method of Example 9.
The anti-metastatic activity of compounds 21-26 was tested using the procedure of Example 2. Specifically, PC3-M cells were treated with 10 μM of compound (for invasion, FIG. 11) or a range of concentrations (for growth inhibition, FIG. 12). For invasion, values are the mean±SD number of invading cells, as a percent of untreated controls, from N=3 separate assays run at different times (each assay was in replicates of N=4). Cell viability was determined by MTT assay as recited in Kyle et al., Mol. Pharmacol, 51(2):193-200 (1997); herein incorporated by reference in its entirety. […]
The anti-metastatic activity of compounds 31-38 was tested using the procedure of Example 2. […] Cell viability was determined by MTT assay as recited in Kyle et al., Mol. Pharmacol, 51(2):193-200 (1997); herein incorporated by reference in its entirety. […]
The anti-metastatic activity of compounds 41-48 was tested using the procedure of Example 2. […] Cell viability was determined by MTT assay as recited in Kyle et al., Mol. Pharmacol, 51(2):193-200 (1997); herein incorporated by reference in its entirety. […]
(Formazan colour is commonly taken as a measure of viable cells.)

Data set [3] concerns PC3-M cells. As to the kind of experiment: Cell invasion assay, compounds 21-48. It is filed as cell-based, human. Conditions: 10 μM of compound. As to the method: as §1
as §2, with “of” for “of the”, “21-26” for “of Example 7”, “PC3-M” for “PC3-M or PC3”, “11)” for “9)”, “12).” for “10).”, “incorporated by reference” for “incorporated”
as §2, with “of” for “of the”, “31-38” for “of Example 7”, “PC3-M” for “PC3-M or PC3”, “13)” for “9)”, “14).” for “10).”, “incorporated by reference” for “incorporated”
as §2, with “of” for “of the”, “41-48” for “of Example 7”, “PC3-M” for “PC3-M or PC3”, “15)” for “9)”, “16).” for “10).”, “incorporated by reference” for “incorporated”

In data set [4] the test system is Estrogen receptor (ER) positive human MCF-7 breast cancer cells. As to the kind of experiment: Expression of estrogen responsive genes (TFF1, PGR, CPSD) in MCF-7 cells. It counts as cell-based. The note with it: 0.1-50 μM, 24 hours, hormone-free conditions. The procedure:
(§3) The genes were: TFF1 (trefoil factor 1; also known as pS2), PGR (progesterone receptor), and CPSD (cathepsin D). Gene expression was measured by isolating RNA, and performing real time quantitative reverse transcription/polymerase chain reaction (qRT/PCR), using exon spanning primers (purchased from Applied Biosystems). The expression of GAPDH was also measured, and used to normalize the expression of ER responsive genes. Data below are the mean±SD of a single experiment, performed in duplicate. […] Additionally, the ability of compound 46 to activate an ER promoter-luciferase reporter vector construct after transient transfection of the human ER positive breast cancer cell line, MCF-7, was evaluated (FIG. 31). […] “No associated control cells” were transfected with an identical vector construct that lacked the estrogen response element, i.e., noERE.

For data set [5], the system named is PC3-M, PC3, 1542CPTX, 1532CPTX, 1532NPTX, and 1542NPTX cells. As to the kind of experiment: Cell invasion assay, invasion time extended to 16 hours. It is filed as cell-based, human. Conditions: invasion assay time 16 hours. The procedure:
as §1
Expanded studies were performed on compound 46. Cell invasion assays conducted using the procedure of Example 2 utilized control, genistein-treated, and compound 46-treated PC3-M, PC3, 1542CPTX, 1532CPTX, 1532NPTX, and 1542NPTX cells (FIG. 17, FIG. 28). This allowed assay conditions to be adjusted so as to optimize assessment of differences between these three treatment conditions. In particular, the invasion assay time was extended from 14 to 16 hours.

Data set [6] in a line: Short-term animal toxicity study, oral gavage. It counts as in vivo. Conditions: 0.15, 1.5, 15, or 150 mg/kg body weight/day, 5 days. The procedure:
Six week old athymic male mice were dosed by oral gavage with 0.15, 1.5, 15, or 150 mg KBU2046/kg body weight/day, or vehicle control, daily for 5 days. There were 3 mice per dose level.

Data set [7] has as its system ER promoter-luciferase reporter vector construct. As to the kind of experiment: ER promoter-luciferase reporter assay in MCF-7 cells. Conditions: 10 μM. It counts as cell-based, human. As to the method: as §3
On the technique in general: A reporter such as luciferase makes a cellular process visible.

The test system of data set [8] is PC3, PC3-M, 1532CPTX, 1542CPTX, 1532NPTX, and 1542NPTX. As to the kind of experiment: Growth inhibition MTT assay in different cell lines. It counts as cell-based, human. Conditions: range of concentrations. The procedure:
Growth inhibition assays were performed with different cell lines using the procedure of Example 2. Specifically, cell lines (PC3, PC3-M, 1532CPTX, 1542CPTX, 1532NPTX, and 1542NPTX) were treated with a range of concentrations of compound 46 (FIG. 18, FIG. 29). Cell viability was determined by MTT assay as recited in Kyle et al., Mol. Pharmacol, 51(2):193-200 (1997); herein incorporated by reference in its entirety. Data are the mean±SEM of a single experiment, performed in triplicate.

Data set [9] can be described thus: Stability after radiation and autoclaving. It counts as physicochemical. As to the method:
Successful scale-up of synthesis of compound 46 was conducted according to the methods of Examples 7, 11, and the Detailed Description, yielding 10 g of material that is >98% pure (by HPLC).

Entries after “also recorded” stand apart in the source; their conditions may differ.

As for `O=c1c(-c2ccccc2)coc2ccccc12` [Compound 1], in [1], the “inhibition of cell invasion (anti-metastatic activity)” value (“inhibition of cell invasion” below) is given as “did not show any significant inhibition of cell invasion”.

Regarding `O=c1c(-c2ccc(O)cc2)coc2cc(O)cc(O)c12` [Compound 8], the “inhibition of cell invasion” value in data set [1] is recorded as “did not show any significant inhibition of cell invasion”.

With `O=c1oc2cc(O)cc(O)c2cc1-c1ccc(O)cc1` [Compound 17], in data set [1], the “inhibition of cell invasion” value was “did not show any significant inhibition of cell invasion”.

As for `O=C1c2c(O)cc(O)cc2OCC1c1ccc(O)cc1` (centres unmarked) [Compound 22, 5,7,4′-trihydroxyisoflavanone], the “cell growth inhibition (MTT)” value in [2] is given as “little-to-no effect upon cell growth inhibition”. For the same compound, the anti-invasion efficacy result in data set [3] is “retain anti-invasion efficacy”.

For the compound `COc1ccc(-c2cc3c(OC)cc(OC)cc3oc2=O)cc1` [Compound 23], the anti-invasion efficacy entry in data set [3] was “loss of activity”.

On to `CC(=O)Oc1ccc(-c2cc3c(OC(C)=O)cc(OC(C)=O)cc3oc2=O)cc1` [Compound 24], for which the anti-invasion efficacy entry in [3] is “loss of activity”.

Take `O=c1oc2cc(O)cc(O)c2cc1-c1ccc(O)cc1` [Compound 25]: in data set [3], the anti-invasion efficacy entry is “loss of activity”.

In the case of `O=c1c(-c2cccc(Cl)c2)coc2ccccc12` [Compound 38, 3′-chloroisoflavone], in [2], the “cell growth inhibition (MTT)” value was “growth inhibitory effects”. The anti-invasion efficacy entry in [3] was “anti-invasive”.

With `O=C1c2ccccc2OCC1c1ccc(F)cc1` (centres unmarked) [Compound 46, 4′-fluoroisoflavanone], the “estrogenic activity (expression of estrogen responsive genes)” value in data set [4] was “no estrogenic activity”. The “anti-invasion efficacy compared to genistein” value in data set [5] is “greater efficacy than genistein; also recorded: greater anti-invasion efficacy compared to genistein”. In addition, the toxicity result in data set [6] was “no evidence of toxicity”. For the same compound, in data set [7], the luciferase activity result is given as “no effect”. For the same compound, the “toxicity in growth inhibition assay (MTT cell viability)” value in [8] is “less toxic than genistein, and in fact shows no toxicity; also recorded: no cell toxicity”. For the same compound, the compound stability result in data set [9] (after exposure to 40 kGy of radiation) is on record as “stability was documented”; in data set [9] (after exposure to high temperatures and pressures (autoclaving)) it was “stability was documented”.
